Assay [1] concerns Mouse bone marrow derived eosinophils. Briefly: Inhibition of eosinophil proliferation in vitro (3H-thymidine incorporation). The assay is classed as cell-based. The conditions noted are these: for thymidine incorporation (eosinophil proliferation): eosinophils cultured with IL-5 (50 ng/ml), treated 1 hour, 3H-thymidine pulse 18 hours, CPM. As for the experimental part: Mouse bone marrow derived eosinophils (1×10^5 cells/well) were seeded in 96 well plates in triplicate and were cultured with IL-5 (50 ng/ml). Eosinophils were treated with 4-[1-(5-methyl-pyridin-3-ylmethyl)piperidin-4-ylidene]-4,9-dihydro-1-thia-benzo[f]azulen-10-one (Compound A) or ketotifen for 1 hour. Cells were then pulsed with 0.5 μCi of ^3H-thymidine for 18 hours. Cells were harvested to glass fiber paper using a suction manifold and washed extensively to eliminate unincorporated thymidine. Fiber paper was dried and added to vials with 2.5 ml of scintillation fluid (Ecolite). Thymidine incorporation was measured on a Wallac beta counter.
The incorporation of ^3H-thymidine (eosinophil proliferation) was quantified by liquid scintillation counting (CPM).

For assay [2], the system named is Mice passively sensitized with anti-DNP IgE mAb, DNFB challenge. Nature of the assay: Prophylactic effects: IgE-mediated late phase cutaneous reactions (ear and foot swelling). Particulars: 1 mg/kg orally twice (before IgE injection and before DNFB challenge), thickness measured after 24 h, FIG. 1B. The class given is in vivo. As for the experimental part:
Mice were given 4-[1-(5-methyl-pyridin-3-ylmethyl)piperidin-4-ylidene]-4,9-dihydro-1-thia-benzo[f]azulen-10-one (1 mg/kg) or ketotifen (1 mg/kg) orally twice as per the schedule dosing regimen provided in FIG. 1A as indicated by the numbered dose in a circle. The first dose (indicated by a circled number 1) was given on day 1 before IgE injection and a 2nd dose (indicated by a circled number 2) was given on day 2 before dinitrofluorobenzene (DNFB, as an allergen) challenge. Mice were passively sensitized by i.v. injection of 2 μg anti-DNP IgE mAb (Sigma). After 24 h, a cutaneous reaction was elicited by the application of 20 μl of DNFB (0.3% wt/vol, Sigma) in acetone-olive oil (4:1) to both sides of the left hind paw or left ear, and 20 μl of acetone-olive oil to the right hind paw or right ear as a control. The thickness of foot pad or ear was measured using a digital micrometer after 24 h. The thickness of the right ear or right hind paw (treated with acetone-olive oil only) was used as baseline values. The DNFB-induced increment of tissue thickness was expressed as the percentage of the baseline values.

For assay [3], the system named is Mouse bone marrow derived mast cells (BMMCs). Nature of the assay: Allergen-induced cytokine IL-6 production by mast cells in vitro. Particulars: FIG. 4. The class given is cell-based. Here is the method: Mouse bone marrow derived mast cells (BMMCs) were resuspended in fresh complete medium supplemented with TIB141-conditioned medium enriched in IgE directed against trinitrophenyl (TNP) at a ratio of 3:1. BMMCs were typically sensitized at 0.5 million/ml. Following sensitization, BMMCs were washed extensively with RPMI 1640 supplemented with 10% FBS alone. BMMCs were then treated with 4-[1-(5-methyl-pyridin-3-ylmethyl)piperidin-4-ylidene]-4,9-dihydro-1-thia-benzo[f]azulen-10-one or ketotifen at the concentration of […], 1, 10 or 100 μM for 1 hour and subsequently stimulated with antigen TNP-BSA (10 ng/ml) for 6 h. Cytokine levels in the cell free supernatant were determined by ELISA.

The test system of assay [4] is Mice passively sensitized with anti-DNP IgE mAb, DNFB application. Briefly: Therapeutic effects: IgE-mediated late phase cutaneous reactions (ear and foot swelling). The assay is classed as in vivo. The conditions noted are these: FIG. 3B. Here is the method: After 24 h, a cutaneous reaction was elicited by the application of 20 μL of DNFB (0.3% wt/vol, Sigma) in acetone-olive oil (4:1) to both sides of the left hind paw or left ear, and 20 μl of acetone-olive oil to the right hind paw or right ear as a control as shown in FIG. 3A. Three hours after DNFB application, mice were given 4-[1-(5-methyl-pyridin-3-ylmethyl)piperidin-4-ylidene]-4,9-dihydro-1-thia-benzo[f]azulen-10-one (1 mg/kg, p.o.), ketotifen (1 mg/kg, p.o.) or saline as control as indicated in FIG. 3A by the circled number “1”. The thickness of foot pad or ear was measured using a digital micrometer after 24 h of DNFB application. The weight of hind paw or ear punch (5 mm) was also determined. The thickness and weight of the right ear or right hind paw (treated with acetone-olive oil only) were used as baseline values. The DNFB-induced increment of tissue thickness was expressed as the percentage of the baseline values.

In assay [5] the test system is Mice sensitized with anti-DNP IgE mAb, DNP-BSA challenge. Briefly: Prophylactic effects: IgE-mediated passive cutaneous anaphylaxis (Evan's blue dye leakage). The assay is classed as in vivo. As for the experimental part:
Mice were given 4-[1-(5-methyl-pyridin-3-ylmethyl)piperidin-4-ylidene]-4,9-dihydro-1-thia-benzo[f]azulen-10-one (1 mg/kg) or ketotifen (1 mg/kg) orally as per dosing schedule shown in FIG. 2A. Subsequently, mice were sensitized by intradermal injection of 20 ng antidinitrophenyl (DNP) IgE mAb (Sigma) into left ears, while right ear received saline as a control. After 24 h, mice were challenged by i.v. injection of 100 μg of DNP-Bovine Serum Albumin (BSA) (as an allergen) in 200 μl Evan's blue dye (1% wt/vol, Sigma). Thirty min later, ear punch (8 mm) was collected in 300 μl of formamide and incubated at 80° C. for 2 h in water bath to extract Evan's blue dye. The absorbance was determined at 620 nm. […] Granule-associated mediators such as histamine stimulate endothelium and blood vessel smooth muscle cells leading to increased vascular permeability.

Where [6] appears, read: 1 mg/kg p.o. each, three hours after DNFB application.

Take `CN1CCC(=C2c3ccccc3CC(=O)c3sccc32)CC1` [ketotifen, reference compound]: the “thymidine incorporation (eosinophil proliferation)” value in assay [1] is on record as “dose-dependently reduced”.
As for `Cc1cncc(CN2CCC(=C3c4ccccc4CC(=O)c4sccc43)CC2)c1` [Compound A, 4-[1-(5-methyl-pyridin-3-ylmethyl)-piperidin-4-ylidene]-4,9-dihydro-1-thia-benzo[f]azulen-10-one], the “thymidine incorporation (eosinophil proliferation)” value in assay [1] is recorded as “dose-dependently reduced”. The “inhibition on eosinophil proliferation, compared with ketotifen” value in assay [1] (p<0.01, n=3 experiments, FIG. 5) is reported as “significantly stronger inhibition”. For the same compound, the “allergen DNFB-induced ear and foot swelling” value in assay [2] is listed as “strongly reduced”. Further, the “cytokine IL-6 production by mast cells” value in assay [3] (BMMCs treated at 01, 1, 10 or 100 μM for 1 hour, then TNP-BSA (10 ng/ml) for 6 h, ELISA) is on record as “significantly reduce”. Besides, the “reduction of IL-6 production by mast cells, compared with ketotifen” value in assay [3] (equivalent concentrations (01, 1, 10 or 100 μM)) was “even more effective than ketotifen at some of the equivalent concentrations used”. In assay [4] (setting [6]), the “block of swelling and weight increase of ear and feet, compared with ketotifen” value is “comparable to ketotifen”; the “foot weight, activity compared with ketotifen” value is on record as “surpassing the activity of ketotifen”. Moreover, the “DNP-induced swelling and increase the weight of the ear and the feet” value in assay [4] (1 mg/kg p.o. three hours after DNFB application, measured 24 h after DNFB application) is listed as “significantly block”. The “allergen (DNP)-induced Evan's blue dye leakage” value in assay [5] (1 mg/kg orally before sensitization, compared to the vehicle control, FIG. 2B) was “strongly reduced”. Moreover, in assay [5] (1 mg/kg orally, suggesting long-lasting effects), the “time after oral administration at which inhibitory effects on Evan's blue dye leakage and tissue swelling were observed” value was determined as 24 h.
